Measurements reported in US12491170B2, “Stable treprostinil prodrugs” (United Therapeutics Corporation, priority 2020, dated 2025).
Like-named read-outs stand apart in the source and are kept apart here.

Key:
[1] = biological target: T1, prostaglandin D2 (PGD2) receptor 1 (DP1) (Homo sapiens, UniProt Q13258); assay: DP1 receptor cAMP agonist assay (HEK293T cells); format: cell-based; details: for DP1 Relative to Tre: Table 22, relative to treprostinil EC50 values, * partial agonists or ambiguous dose-response curves
T1 sequence (Q13258 1-359): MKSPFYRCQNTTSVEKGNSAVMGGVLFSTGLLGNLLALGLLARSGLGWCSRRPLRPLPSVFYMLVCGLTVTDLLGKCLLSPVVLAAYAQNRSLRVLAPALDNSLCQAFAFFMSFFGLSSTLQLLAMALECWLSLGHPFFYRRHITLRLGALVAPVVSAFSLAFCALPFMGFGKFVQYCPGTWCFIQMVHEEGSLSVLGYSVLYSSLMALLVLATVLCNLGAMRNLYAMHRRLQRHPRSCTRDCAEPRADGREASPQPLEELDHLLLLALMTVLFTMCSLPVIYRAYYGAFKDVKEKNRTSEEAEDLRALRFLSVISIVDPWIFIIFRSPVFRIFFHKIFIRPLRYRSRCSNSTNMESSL
Method: Cyclic AMP assay kit: Multiscreen™ TR-FRET cAMP 1.0 No Wash Assay Kit (Multispan, Inc.)
Cells were thawed from frozen cells and resuspended in assay buffer at desired concentrations. cAMP or Calcium assays were performed according to the manufacturer's protocol using Multiscreen™ TR-FRET cAMP 1.0 No Wash Assay Kit or Multiscreen™ Calcium 1.0 No Wash Kit.
Gas Cyclic AMP (cAMP) Assay: In agonist mode testing, cells were seeded in a 384-well plate at an appropriate density and then were treated with compounds and incubated at 37° C. for 20 minutes. The reaction was terminated by […] trFluor™ Eu-labeled cAMP and trFluor™ 650-labeled anti-cAMP antibody in lysis buffer. […] All testing wells contained 0.1% DMSO in the final concentrations.
Data in graphs are represented in Mean±SD. Dose-dependent responses were fitted with sigmoidal dose-response curves allowing variable slopes using GraphPad Prism version 6 (Graphpad Prism).
These studies used cell lines overexpressing either human IP, EP2 or DP1, or EP1 receptors, and following incubation with varying concentrations of compounds, cAMP levels were measured using Fluorescence Resonance Energy Transfer (FRET).

[2] = Stability in cryopreserved hepatocytes, dog
[3] = Stability in liver microsomes, dog
[4] = Stability in liver microsomes, rat
[5] = Stability in cryopreserved hepatocytes, rat
[6] = dog
[7] = Stability in simulated intestinal fluid; format: in vitro ADME
Method: Studies were carried out in simulated intestinal fluid (SIF). SIF was prepared by dissolving 6.8 g of KH2PO4 in 250 mL of water, mixing, and then adding 77 mL of 0.2 N NaOH and […] of water. […] DMSO stocks were first prepared for the test articles. […] The vials were kept in a benchtop Thermomixer® for the duration of the experiment. A separate tube was dosed for each time point in each matrix. […] Samples were mixed and then immediately stored at 4° C. until the end of the experiment. After the final time point was sampled, the plate was mixed and then centrifuged at 3000 rpm for 10 minutes.

CCCCCC(CCC1C(O)CC2Cc3c(cccc3OCC(=O)O)CC21)OC(C)=O (stereo not drawn) [Prodrug XLIII]
DP1 Relative to Tre [1]: 272x | Treprostinil Concentration 15 min [2]: 0.628 µM | Treprostinil Concentration 120 min [2]: 0.4 µM | Mono AUC (treprostinil formed) ([2]; dog): 54.0 µmol·min/L | Treprostinil Concentration 0 min [3]: 0.964 µM | Treprostinil Concentration 15 min [3]: 0.917 µM | Treprostinil Concentration 30 min [3]: 0.899 µM | Treprostinil Concentration 60 min [3]: 0.932 µM | Treprostinil Concentration 120 min [3]: 0.873 µM | AUC Mono (treprostinil formed) ([3]; dog): 54.7 µmol·min/L | Treprostinil Concentration 0 min [4]: 0.035 µM | Treprostinil Concentration 15 min [4]: 0.0741 µM | Treprostinil Concentration 30 min [4]: 0.111 µM | Treprostinil Concentration 60 min [4]: 0.145 µM | Treprostinil Concentration 120 min [4]: 0.206 µM | AUC Mono (treprostinil formed) ([4]; rat): 8.0 µmol·min/L | Treprostinil Concentration 0 min [5]: 0.00292 µM | Treprostinil Concentration 120 min [5]: 0.503 µM | Mono AUC (treprostinil formed) ([5]; rat): 41.4 µmol·min/L

treprostinil diacetate [Prodrug LXXII]
Activity at the DP1 receptor compared to treprostinil ([1]; summary of findings): several hundred-fold less active | AUC [6]: 60.91 µmol·min/L | Trep Concentration (μM) 0 min [2]: 0.0636 µM | Trep Concentration (μM) 30 min [2]: 0.541 µM | Trep Concentration (μM) 60 min [2]: 0.465 µM | Trep Concentration (μM) 120 min [2]: 0.401 µM | Treprostinil Concentration 15 min [2]: 0.671 µM | Treprostinil Concentration 120 min [2]: 0.401 µM | AUC ([2]; dog): 55.67 µmol·min/L | Mono AUC (treprostinil formed) ([2]; dog): 55.7 µmol·min/L | CLint ([2]; dog, hepatocytes): >0.0308 mL/min/mg protein | Half-life ([2]; dog, hepatocytes): <15 min | Trep Concentration 0 min [3]: 1.07 µM | Trep Concentration 10 min [3]: 1.07 µM | Trep Concentration 20 min [3]: 1.04 µM | Trep Concentration 30 min [3]: 1.05 µM | Trep Concentration 60 min [3]: 0.897 µM | Treprostinil Concentration 0 min [3]: 1.07 µM | Treprostinil Concentration 15 min [3]: 1.07 µM | Treprostinil Concentration 30 min [3]: 1.04 µM | Treprostinil Concentration 60 min [3]: 1.05 µM | Treprostinil Concentration 120 min [3]: 0.897 µM | AUC Mono (treprostinil formed) ([3]; dog): 60.9 µmol·min/L | CLint ([3]; dog, microsomes): >0.139 mL/min/mg protein | Half-life ([3]; dog, microsomes): <10 min | Half-life ([7]; SIF pH 6.8 with pancreatin, 1 μM, 37° C.): >120 min | Percent Remaining 0 min ([7]; SIF pH 6.8 with pancreatin, 1 μM, 37° C., 0 min): 100% | Percent Remaining 15 min ([7]; SIF pH 6.8 with pancreatin, 1 μM, 37° C., 15 min): 111% | Percent Remaining 60 min ([7]; SIF pH 6.8 with pancreatin, 1 μM, 37° C., 60 min): 108% | Percent Remaining 120 min ([7]; SIF pH 6.8 with pancreatin, 1 μM, 37° C., 120 min): 109% | Formation of Treprostinil, Concentration 0 min ([7]; SIF, prodrug dosed 1 μM, 0 min): 0 µM | Formation of Treprostinil, Concentration 15 min ([7]; SIF, prodrug dosed 1 μM, 15 min): 0 µM | Formation of Treprostinil, Concentration 30 min ([7]; SIF, prodrug dosed 1 μM, 30 min): 0 µM | Formation of Treprostinil, Concentration 60 min ([7]; SIF, prodrug dosed 1 μM, 60 min): 0 µM | Formation of Treprostinil, Concentration 120 min ([7]; SIF, prodrug dosed 1 μM, 120 min): 0.0126 µM | Trep Concentration 0 min [4]: 0.0413 µM | Trep Concentration 10 min [4]: 0.095 µM | Trep Concentration 20 min [4]: 0.182 µM | Trep Concentration 30 min [4]: 0.19 µM | Trep Concentration 60 min [4]: 0.216 µM | Treprostinil Concentration 0 min [4]: 0.0413 µM | Treprostinil Concentration 15 min [4]: 0.095 µM | Treprostinil Concentration 30 min [4]: 0.182 µM | Treprostinil Concentration 60 min [4]: 0.19 µM | Treprostinil Concentration 120 min [4]: 0.216 µM | CLint, calculated (in parentheses) ([4]; microsomes): 0.144 mL/min/mg protein | Half-life, calculated (in parentheses) ([4]; microsomes): 9.65 min | AUC Mono (treprostinil formed) ([4]; rat): 10.0 µmol·min/L | CLint ([4]; rat, microsomes): > 0.139 mL/min/mg protein | Half-life ([4]; rat, microsomes): < 10 min | Trep Concentration (μM) 0 min [5]: 0 µM | Trep Concentration (μM) 15 min [5]: 0.24 µM | Trep Concentration (μM) 30 min [5]: 0.301 µM | Trep Concentration (μM) 60 min [5]: 0.298 µM | Trep Concentration (μM) 120 min [5]: 0.274 µM | Treprostinil Concentration 0 min [5]: 0 µM | Treprostinil Concentration 120 min [5]: 0.274 µM | CLint, calculated (in parentheses) ([5]; hepatocytes): 0.0697 mL/min/mg protein | Half-life, calculated (in parentheses) ([5]; hepatocytes): 6.63 min | AUC ([5]; rat): 32 µmol·min/L | Mono AUC (treprostinil formed) ([5]; rat): 32.0 µmol·min/L | CLint ([5]; rat, hepatocytes): > 0.0308 mL/min/mg protein | Half-life ([5]; rat, hepatocytes): < 15 min

CCCCCC(CCC1C(O)CC2Cc3c(cccc3OCC(=O)O)CC21)OC(=O)CC (stereo not drawn) [Prodrug LV]
DP1 Relative to Tre [1]: 94x | Treprostinil Concentration 15 min [2]: 0.781 µM | Treprostinil Concentration 120 min [2]: 0.53 µM | Mono AUC (treprostinil formed) ([2]; dog): 71.2 µmol·min/L | Treprostinil Concentration 0 min [3]: 0.971 µM | Treprostinil Concentration 15 min [3]: 0.961 µM | Treprostinil Concentration 30 min [3]: 0.934 µM | Treprostinil Concentration 60 min [3]: 0.915 µM | Treprostinil Concentration 120 min [3]: 0.743 µM | AUC Mono (treprostinil formed) ([3]; dog): 53.3 µmol·min/L | Treprostinil Concentration 0 min [4]: 0.26 µM | Treprostinil Concentration 15 min [4]: 0.43 µM | Treprostinil Concentration 30 min [4]: 0.525 µM | Treprostinil Concentration 60 min [4]: 0.586 µM | Treprostinil Concentration 120 min [4]: 0.553 µM | AUC Mono (treprostinil formed) ([4]; rat): 30.9 µmol·min/L | Treprostinil Concentration 0 min [5]: 0.0159 µM | Treprostinil Concentration 120 min [5]: 0.391 µM | Mono AUC (treprostinil formed) ([5]; rat): 49.3 µmol·min/L

CCCCCC(CCC1C(O)CC2Cc3c(cccc3OCC(=O)O)CC21)OP(=O)(O)O (stereo not drawn) [Prodrug VI]
DP1 Relative to Tre [1]: 2x | Treprostinil Concentration 15 min [2]: 0.581 µM | Treprostinil Concentration 120 min [2]: 0.548 µM | Mono AUC (treprostinil formed) ([2]; dog): 62.9 µmol·min/L | Treprostinil Concentration 0 min [3]: 0.21 µM | Treprostinil Concentration 15 min [3]: 0.32 µM | Treprostinil Concentration 30 min [3]: 0.43 µM | Treprostinil Concentration 60 min [3]: 0.48 µM | Treprostinil Concentration 120 min [3]: 0.75 µM | AUC Mono (treprostinil formed) ([3]; dog): 29.4 µmol·min/L | Treprostinil Concentration 0 min [4]: 0.27 µM | Treprostinil Concentration 15 min [4]: 0.39 µM | Treprostinil Concentration 30 min [4]: 0.46 µM | Treprostinil Concentration 60 min [4]: 0.53 µM | Treprostinil Concentration 120 min [4]: 0.73 µM | AUC Mono (treprostinil formed) ([4]; rat): 31.4 µmol·min/L | Treprostinil Concentration 0 min [5]: 0.128 µM | Treprostinil Concentration 120 min [5]: 0.53 µM | Mono AUC (treprostinil formed) ([5]; rat): 66.9 µmol·min/L
